Results: patent US20230133657A1, “THE USE OF MENTHOL FOR THE PREPARATION OF A TOPICAL COMPOSITION TO IMPROVE NEURODEGENERATIVE DISEASE AND STROKE” (CHINA MEDICAL UNIVERSITY, priority 2020, published 2023)

Columns and labels:
[1] = tested on: ischemic stroke mice (MCAO); assay: Rotarod test, ischemic stroke mouse model; format: in vivo
From the text: Laboratory mice are divided into four groups: “Control” consisting of mice processed through MCAO for the ischemic stroke; “Water” consisting of mice which are processed for the ischemic stroke through MCAO and whose limbs are soaked in water; “MCAO+8% ME” consisting of mice which are processed for the ischemic stroke through MCAO and whose limbs are soaked in 8% menthol; “MCAO+16% ME” consisting of mice which are processed for the ischemic stroke through MCAO and whose limbs are soaked in 16% menthol. In Embodiment 2, menthol is prepared with 95% ethanol. Referring to the experiment schedule in FIG. 2A, mice are sacrificed on Day 7 for following analyses. Mice are processed for the ischemic stroke through MCAO on Day 0 and administrated with menthol once per day from Day 0 to Day 6. On the day of processing mice through MCAO, the limbs of a mouse resting 20 minutes after the operation are soaked in menthol for one minute; a mouse's limbs are soaked in menthol for 15 seconds only from Day 2 to Day 6; comparatively, a Water mouse's limbs are soaked in water. The sensorimotor nerve function test is conducted for mice one day before MCAO processing (i.e., pre-MCAO) and 1, 3 and 6 days after MCAO processing; the cerebral infarction volume is measured for checking any improvement in the stroke due to menthol on Day 7 after MCAO processing. In the rotarod test, a mouse is placed on a self-accelerated rotating rod (rotation rate from 4 to 40 rpm) on Day 3 and Day 6 for measuring the retention time (FIG. 2B-1 and FIG. 2B-2) and comparing test results with those of “pre-MCAO”. Mice in each group are tested three times. The test results are analyzed with the one-way ANOVA for further reviews through the multiple comparison analysis (Dunnett's method) and statistics of between-group variances (*p<0.05). The asterisk (*) means a significant difference between “Control” and “Water” or “MCAO+8% ME” (*p<0.05; **p<0.01). […] As shown in FIGS. 4B-1 and 4B-2, the test results are analyzed with the one-way ANOVA for further reviews through the multiple comparison analysis (Duncan's method) and statistics of between-group variances (*p<0.05; *: comparison with the “Water” group; comparison with the “16% ME” group; comparison with the “8% ME” group). […]

[2] = tested on: ischemic stroke mice (MCAO); assay: Measurement of the cerebral infarction volume (TTC staining); format: in vivo, mouse
From the text: Laboratory mice are divided into four groups: “Control” consisting of mice processed through MCAO for the ischemic stroke; “Water” consisting of mice which are processed for the ischemic stroke through MCAO and whose limbs are soaked in water; “MCAO+8% ME” consisting of mice which are processed for the ischemic stroke through MCAO and whose limbs are soaked in 8% menthol; “MCAO+16% ME” consisting of mice which are processed for the ischemic stroke through MCAO and whose limbs are soaked in 16% menthol. In Embodiment 2, menthol is prepared with 95% ethanol. Referring to the experiment schedule in FIG. 2A, mice are sacrificed on Day 7 for following analyses. Mice are processed for the ischemic stroke through MCAO on Day 0 and administrated with menthol once per day from Day 0 to Day 6. On the day of processing mice through MCAO, the limbs of a mouse resting 20 minutes after the operation are soaked in menthol for one minute; a mouse's limbs are soaked in menthol for 15 seconds only from Day 2 to Day 6; comparatively, a Water mouse's limbs are soaked in water. The sensorimotor nerve function test is conducted for mice one day before MCAO processing (i.e., pre-MCAO) and 1, 3 and 6 days after MCAO processing; the cerebral infarction volume is measured for checking any improvement in the stroke due to menthol on Day 7 after MCAO processing. After a mouse in each group is sacrificed through perfusion one week after MCAO processing, a specimen of the mouse's living brain is stained by TTC (FIG. 2D-2) for measurement of the cerebral infarction volume (mm^3) (FIG. 2D-1). The test results for the cerebral infarction volume are analyzed with the one-way ANOVA for further reviews through the multiple comparison analysis (Tukey's method) and statistics of between-group variances (*p<0.05). […] Laboratory mice are divided into five groups: “Water” consisting of mice which are processed for the ischemic stroke through MCAO and whose limbs are soaked in water; “8% ME” consisting of mice which are processed for the ischemic stroke through MCAO and whose limbs are soaked in 8% menthol; “16% ME” consisting of mice which are processed for the ischemic stroke through MCAO and whose limbs are soaked in 16% menthol; “Back-ME” consisting of mice which are processed for the ischemic stroke through MCAO and whose backs are soaked in menthol; “Oral-ME” consisting of mice which are processed for the ischemic stroke through MCAO and fed with menthol. […] As shown in FIGS. 4B-1 and 4B-2, the test results are analyzed with the one-way ANOVA for further reviews through the multiple comparison analysis (Duncan's method) and statistics of between-group variances (*p<0.05; *: comparison with the “Water” group; comparison with the “16% ME” group; comparison with the “8% ME” group). […]

[3] = tested on: ischemic stroke mice (MCAO); assay: Adhesive removal test, ischemic stroke mouse model; format: in vivo
From the text: Laboratory mice are divided into four groups: “Control” consisting of mice processed through MCAO for the ischemic stroke; “Water” consisting of mice which are processed for the ischemic stroke through MCAO and whose limbs are soaked in water; “MCAO+8% ME” consisting of mice which are processed for the ischemic stroke through MCAO and whose limbs are soaked in 8% menthol; “MCAO+16% ME” consisting of mice which are processed for the ischemic stroke through MCAO and whose limbs are soaked in 16% menthol. In Embodiment 2, menthol is prepared with 95% ethanol. Referring to the experiment schedule in FIG. 2A, mice are sacrificed on Day 7 for following analyses. Mice are processed for the ischemic stroke through MCAO on Day 0 and administrated with menthol once per day from Day 0 to Day 6. On the day of processing mice through MCAO, the limbs of a mouse resting 20 minutes after the operation are soaked in menthol for one minute; a mouse's limbs are soaked in menthol for 15 seconds only from Day 2 to Day 6; comparatively, a Water mouse's limbs are soaked in water. The sensorimotor nerve function test is conducted for mice one day before MCAO processing (i.e., pre-MCAO) and 1, 3 and 6 days after MCAO processing; the cerebral infarction volume is measured for checking any improvement in the stroke due to menthol on Day 7 after MCAO processing. The adhesive removal test is conducted on Day 1, 3 and 6 and the test results are compared with status at “pre-MCAO”. As shown in the experimental process, the time of a mouse finding and removing 4 (mm)×4 (mm) stickers, which have been adhered to its forepaws outside a test cage, is recorded (FIG. 2C-1, FIG. 2C-2) for statistic analysis as described in Section 2.1 (*p<0.05; **p<0.01; ***p<0.001). […] As shown in FIGS. 4B-1 and 4B-2, the test results are analyzed with the one-way ANOVA for further reviews through the multiple comparison analysis (Duncan's method) and statistics of between-group variances (*p<0.05; *: comparison with the “Water” group; comparison with the “16% ME” group; comparison with the “8% ME” group). […]

[4] = tested on: Parkinson's disease mice (MPTP); assay: Rotarod test (endurance exercise test), Parkinson's disease mouse model; format: in vivo; settings: forepaws soaked in 8% (wt %) menthol solution 10 seconds per day
From the text: Laboratory mice are divided into three groups: “Control” consisting of normal mice; “MPTP” consisting of Parkinson's disease mice fed with MPTP for creation of a disease model; “MPTP+8% ME” consisting of Parkinson's disease mice which are fed with MPTP for creation of a disease model and whose forepaws are soaked in 8% menthol. For administration of menthol, two forepaws of each “MPTP+8% ME” mouse are soaked in 8% (wt %) menthol solution for 10 seconds per day from Day 1 to Day 5 and from Day 8 to Day 10, respectively. For creation of a Parkinson's disease mouse model, MPTP (daily dosage: 10 mg/kg) is injected into “MPTP” and “MPTP+8% ME” mice through the intraperitoneal (I.P.) injection on three consecutive days from Day 3 to Day 5. By Day 10, the endurance exercise test, the dopamine assay and the immunohistochemical staining are conducted for any improvement in the symptom of Parkinson's disease due to menthol. The rotarod test is a performance test in which a rodent keeps running on a self-accelerated rotating rod activated from 4 rpm (initial rotation rate) to 40 rpm (maximum and constant rotation rate in five minutes) on Day 1 (Day 10) for estimation of the retention time of the rodent on the rotating rod (FIG. 1B). As shown in the ordinate of FIG. 1B, “A latency to fall” denotes the difference between the retention time on Day 10 and the retention time on Day 1.

[5] = tested on: Parkinson's disease mice (MPTP); assay: Immunohistochemical (IHC) staining of TH in substantia nigra; format: in vivo, mouse; settings: forepaws soaked in 8% menthol
From the text: Laboratory mice are divided into three groups: “Control” consisting of normal mice; “MPTP” consisting of Parkinson's disease mice fed with MPTP for creation of a disease model; “MPTP+8% ME” consisting of Parkinson's disease mice which are fed with MPTP for creation of a disease model and whose forepaws are soaked in 8% menthol. For administration of menthol, two forepaws of each “MPTP+8% ME” mouse are soaked in 8% (wt %) menthol solution for 10 seconds per day from Day 1 to Day 5 and from Day 8 to Day 10, respectively. For creation of a Parkinson's disease mouse model, MPTP (daily dosage: 10 mg/kg) is injected into “MPTP” and “MPTP+8% ME” mice through the intraperitoneal (I.P.) injection on three consecutive days from Day 3 to Day 5. By Day 10, the endurance exercise test, the dopamine assay and the immunohistochemical staining are conducted for any improvement in the symptom of Parkinson's disease due to menthol. The level of TH in a mouse's substantia nigra is tested through IHC staining (FIG. 1D). […] A mouse's nerve cells containing TH for generation of dopamine could be damaged due to Parkinson's disease.

[6] = MCAO mice fed with oral menthol (Oral-ME)
[7] = MCAO mice, limbs soaked in menthol (8% ME, 16% ME), topical vs oral comparison

SMILES: CC1CCC(C(C)C)C(O)C1 (stereo not shown) [menthol]
- retention time on a rotating rod [1, 6]: not extended effectively
- retention time on a rotating rod ([1]; MCAO mice, backs administered with topical menthol (Back-ME)): not extended effectively
- retention time on a rotating rod ([1]; MCAO mice, limbs soaked in 8% or 16% menthol once per day Day 0 to Day 6, Day 3 and Day 6): longer than the retention time performed by MCAO or Water mice
- retention time on a rotating rod [1, 7]: longer than the retention time performed by Back-ME, Water or Oral-ME mice
- cerebral infarction volume [2, 6]: unchanged
- cerebral infarction volume ([2]; MCAO mice, backs administered with menthol (Back-ME)): unchanged
- cerebral infarction volume ([2]; MCAO mice, limbs soaked in 8% or 16% menthol, Day 7, TTC staining, vs Control and Water groups): significantly decreases
- cerebral infarction volume [2, 7]: significantly subdued
- time spent in removing stickers ([3]; limbs soaked in 8% or 16% menthol, Day 1, 3 and 6): significantly shorter than time spent by Control or Water mice
- time spent in finding stickers ([3]; limbs soaked in 8% or 16% menthol, Day 6, vs Water mice): significantly less time
- time spent in finding and removing stickers ([3]; limbs soaked in menthol (8% ME, 16% ME), vs Water, Back-ME, Oral-ME): significantly shorter than other mice
- retention time on a rotating rod (latency to fall, Day 10 vs Day 1) [4]: longer than the retention time on Day 1
- level of TH in substantia nigra [5]: recovered and similar to that of Control mice
